From patent US10130830B2, “Preservative systems comprising cationic surfactants” (Laboratorios Miret, S.A., priority 2005, dated 2018)
Several values for one entry are separate records, joined by “and”; a condition that tells them apart may be missing. Equal values may be shown once.

Experiments:
Format in all cases: cell-based
[1] = system: Aerobes; experiment: Preservative action in cosmetic products (Antimicrobial Effectiveness Testing USP 24th Edition), aerobes
Description: (1) Determination of Preservative Action in Cosmetic Products. […] This assay consists of the contamination of the protecting formulations with an inoculum mixture of 10^8 cfu/ml concentration, for each of the micro-organisms, and the determination of the number of viable cells in time. This inoculum mixture is composed of the following microorganisms: [table] The cosmetic composition to be analysed is divided into sterile containers with 50 g of product for each flask. Each container is inoculated with 0.5 ml of inoculum (10^8 cfu/ml). The target concentration is 10^6 cfu/ml, approximately. All the containers are kept at a temperature between 20-25° C. and are protected from light. The level of the microbial contamination is checked at 0 hours, 7 days, 14 days and 28 days. The number of colonies is evaluated by dilution in buffer peptone with the appropriate neutraliser agent of the preservative. The culture media used for counting the microorganisms are: […] (2) Determination of Preservative Action in Chicken Breast. Process of Preparation • 1. Fresh chicken breast was diced to pieces • 2. Brine (8.70% sodium chloride and 4.35% tripolyphosphate in water) was added to the fresh chicken in an amount of 11.5 g brine per 88.5 g meat in the control preparation and 11.5 g brine and 88.4 g meat in the preparations treated with preservative. • 3. Brine and meat were mixed during 15 minutes, in the preparations treated with preservative the preservative was added after 14 minutes in an amount of 0.2 g/kg. • 4. Vacuum refrigerate tumbling was made during 30 minutes. • 5. Samples were vacuum-packed in sterile bags and they were cooked at 85° C. for 30 minutes. • 6. The cooked chicken was refrigerated at 4° C. • 7. The cooked chicken was diced in irregular shapes. • 8. Then, the nuggets were stored at 10° C. in sterile vacuum-packed bags. Analysis

[2] = system: aerobic total count; experiment: Preservative action in cooked chicken breast, aerobic total count; settings: for counts (aerobic total count): for 5 weeks
Protocol: (2) Determination of Preservative Action in Chicken Breast. Process of Preparation • 1. Fresh chicken breast was diced to pieces • 2. Brine (8.70% sodium chloride and 4.35% tripolyphosphate in water) was added to the fresh chicken in an amount of 11.5 g brine per 88.5 g meat in the control preparation and 11.5 g brine and 88.4 g meat in the preparations treated with preservative. • 3. Brine and meat were mixed during 15 minutes, in the preparations treated with preservative the preservative was added after 14 minutes in an amount of 0.2 g/kg. • 4. Vacuum refrigerate tumbling was made during 30 minutes. • 5. Samples were vacuum-packed in sterile bags and they were cooked at 85° C. for 30 minutes. • 6. The cooked chicken was refrigerated at 4° C. • 7. The cooked chicken was diced in irregular shapes. • 8. Then, the nuggets were stored at 10° C. in sterile vacuum-packed bags. Analysis […] Dilutions were made in buffered peptone water. Tryptone Soya Agar was harvested with each dilution and incubated at 35° C. for 48 hours. The mean value in log cfu/g of three samples per treatment and day of analysis was calculated.

[3] = system: aerobic total count; experiment: Preservative action in soaked chickpeas, aerobic total count; settings: Example 13, soaked chickpeas, LAE 0.2 g/kg in soaking water, mean of triplicate
Protocol: (4) Determination of Preservative Action in Soaked Chick-peas.
Chickpeas are the principal ingredients in a lot of ready-to-eat meals. Before cooking them, chickpeas have to be soaked in water at room temperature for 24 hours. During this period, fermentation processes may occur and therefore, chickpeas would not be suitable for eating. The soaking process cannot be made at refrigeration temperatures, because the structure of the chickpeas could be damaged.
• 1. Chickpeas were soaked in water for 24 hours at 30° C. and 50% HR (in treated samples preservative was added at this point); and • 2. after 24 hours the chickpeas were strained. Analysis • Samples were analysed (aerobic total count and concentration of the cationic surfactant) by triplicate for 24 hours. • Aerobic total count was analysed by stomaching 25 g of chickpeas in 225 g of buffered peptone water. Dilutions were made in buffered peptone water. Tryptone Soya Agar was harvested with each dilution and incubated at 35° C. for 48 hours. • Average values in log cfu/g of three samples per treatment and day of analysis were calculated. • LAE was analysed by HPLC using an internally validated method.

CCCCCCCCCCCC(=O)N[C@@H](CCCN=C(N)N)C(=O)OCC.Cl [LAE, ethyl ester of the lauramide of the arginine monohydrochloride]
Aerobes count ([1]; Example 10, oil in water emulsion with non-ionic surfactant, 0.2 g/kg, 0 days): 6.2 log cfu/g | Aerobes count ([1]; Example 10, oil in water emulsion with non-ionic surfactant, 0.2 g/kg, 7 days): 3.5 log cfu/g | Aerobes count ([1]; Example 10, oil in water emulsion with non-ionic surfactant, 0.2 g/kg, 14 days): 3.0 log cfu/g | Aerobes count ([1]; Example 12, bath gel, LAE 0.2 g/kg, 0 days): 6.2 log cfu/g | Aerobes count ([1]; Example 12, bath gel, LAE 0.2 g/kg, 7 days): 4.2 log cfu/g | Aerobes count ([1]; Example 12, bath gel, LAE 0.2 g/kg, 14 days): 3.0 log cfu/g | Aerobes count ([1]; Example 15, bath gel, LAE 0.2 g/kg, 0 days): 6.1 log cfu/g | Aerobes count ([1]; Example 15, bath gel, LAE 0.2 g/kg, 7 days): 3.0 log cfu/g | Aerobes count ([1]; Example 15, bath gel, LAE 0.2 g/kg, 14 days): 2.6 log cfu/g | Aerobes count ([1]; Example 17, oil in water emulsion with an ionic emulsifier, 0.20 g of LAE/kg, 0 days): 6.1 log cfu/g | Aerobes count ([1]; Example 17, oil in water emulsion with an ionic emulsifier, 0.20 g of LAE/kg, 7 days): 4.0 log cfu/g | Aerobes count ([1]; Example 17, oil in water emulsion with an ionic emulsifier, 0.20 g of LAE/kg, 14 days): 2.9 log cfu/g | Aerobes count ([1]; Example 19, bath gel, 0.2 g of LAE/kg, 0 days): 6.0 log cfu/g | Aerobes count ([1]; Example 19, bath gel, 0.2 g of LAE/kg, 7 days): 3.3 log cfu/g | Aerobes count ([1]; Example 19, bath gel, 0.2 g of LAE/kg, 14 days): 2.9 log cfu/g | aerobic total count, mean ([2]; Example 9, cooked chicken, 0.2 g/kg, day 0, mean of triplicate): 2.0 log cfu/g | aerobic total count ([2]; Example 9, cooked chicken, 0.2 g/kg, day 0, samples 1-3): 2.0 log cfu/g | aerobic total count, mean ([2]; Example 9, cooked chicken, 0.2 g/kg, day 7, mean of triplicate): 2.0 log cfu/g | aerobic total count ([2]; Example 9, cooked chicken, 0.2 g/kg, day 7, samples 1-3): 2.0 log cfu/g | aerobic total count, mean ([2]; Example 9, cooked chicken, 0.2 g/kg, day 14, mean of triplicate): 2.3 log cfu/g | aerobic total count ([2]; Example 9, cooked chicken, 0.2 g/kg, day 14, samples 1-3, monohydrochloride): 2.0 log cfu/g and 2.5 log cfu/g and 2.3 log cfu/g | aerobic total count, mean ([2]; Example 9, cooked chicken, 0.2 g/kg, day 21, mean of triplicate): 2.8 log cfu/g | aerobic total count ([2]; Example 9, cooked chicken, 0.2 g/kg, day 21, samples 1-3, monohydrochloride): 3.0 log cfu/g and 2.8 log cfu/g and 2.6 log cfu/g | aerobic total count, mean ([2]; Example 9, cooked chicken, 0.2 g/kg, day 28, mean of triplicate): 3.3 log cfu/g | aerobic total count ([2]; Example 9, cooked chicken, 0.2 g/kg, day 28, samples 1-3): 3.1 log cfu/g | aerobic total count ([2]; Example 9, cooked chicken, 0.2 g/kg, day 28, samples 1-3, monohydrochloride): 3.2 log cfu/g and 3.5 log cfu/g | aerobic total count, mean ([2]; Example 9, cooked chicken, 0.2 g/kg, day 35, mean of triplicate): 3.6 log cfu/g | aerobic total count ([2]; Example 9, cooked chicken, 0.2 g/kg, day 35, samples 1-3): 3.6 log cfu/g | aerobic total count ([2]; Example 9, cooked chicken, 0.2 g/kg, day 35, samples 1-3, monohydrochloride): 3.8 log cfu/g and 3.3 log cfu/g | aerobic total count, mean ([2]; Example 9, cooked chicken, 0.2 g/kg, day 42, mean of triplicate): 4.1 log cfu/g | aerobic total count ([2]; Example 9, cooked chicken, 0.2 g/kg, day 42, samples 1-3, monohydrochloride): 4.0 log cfu/g and 4.3 log cfu/g and 4.1 log cfu/g | aerobic total count, mean ([2]; Example 9, cooked chicken, 0.2 g/kg, day 49, mean of triplicate): 5.0 log cfu/g | aerobic total count ([2]; Example 9, cooked chicken, 0.2 g/kg, day 49, samples 1-3, monohydrochloride): 5.1 log cfu/g and 4.7 log cfu/g and 5.2 log cfu/g | aerobic total count, mean ([2]; Example 9, cooked chicken, 0.2 g/kg, day 56 (8 weeks), mean of triplicate): 5.4 log cfu/g | aerobic total count ([2]; Example 9, cooked chicken, 0.2 g/kg, day 56, samples 1-3, monohydrochloride): 5.3 log cfu/g and 5.2 log cfu/g and 5.5 log cfu/g | counts (aerobic total count) ([2]; Example 9, cooked chicken, 0.2 g/kg): below 4.0 log cfu/g | aerobic total count, mean ([2]; Example 14, cooked chicken, LAE 0.2 g/kg, day 0, mean of triplicate): 2.0 log cfu/g | aerobic total count, mean ([2]; Example 14, cooked chicken, LAE 0.2 g/kg, day 7, mean of triplicate): 2.0 log cfu/g | aerobic total count ([2]; Example 14, cooked chicken, LAE 0.2 g/kg, day 7, samples 1-3): 2.0 log cfu/g | aerobic total count, mean ([2]; Example 14, cooked chicken, LAE 0.2 g/kg, day 14, mean of triplicate): 2.3 log cfu/g | aerobic total count ([2]; Example 14, cooked chicken, LAE 0.2 g/kg, day 14, samples 1-3, monohydrochloride): 2.2 log cfu/g and 2.6 log cfu/g | aerobic total count, mean ([2]; Example 14, cooked chicken, LAE 0.2 g/kg, day 21, mean of triplicate): 2.9 log cfu/g | aerobic total count ([2]; Example 14, cooked chicken, LAE 0.2 g/kg, day 21, samples 1-3, monohydrochloride): 3.0 log cfu/g and 2.8 log cfu/g | aerobic total count, mean ([2]; Example 14, cooked chicken, LAE 0.2 g/kg, day 28, mean of triplicate): 3.4 log cfu/g | aerobic total count ([2]; Example 14, cooked chicken, LAE 0.2 g/kg, day 28, samples 1-3): 3.4 log cfu/g | aerobic total count ([2]; Example 14, cooked chicken, LAE 0.2 g/kg, day 28, samples 1-3, monohydrochloride): 3.2 log cfu/g and 3.5 log cfu/g | aerobic total count, mean ([2]; Example 14, cooked chicken, LAE 0.2 g/kg, day 35, mean of triplicate): 3.8 log cfu/g | aerobic total count ([2]; Example 14, cooked chicken, LAE 0.2 g/kg, day 35, samples 1-3, monohydrochloride): 3.6 log cfu/g and 3.8 log cfu/g and 3.9 log cfu/g | aerobic total count, mean ([2]; Example 14, cooked chicken, LAE 0.2 g/kg, day 42, mean of triplicate): 4.0 log cfu/g | aerobic total count ([2]; Example 14, cooked chicken, LAE 0.2 g/kg, day 42, samples 1-3, monohydrochloride): 4.0 log cfu/g and 4.1 log cfu/g | aerobic total count, mean ([2]; Example 14, cooked chicken, LAE 0.2 g/kg, day 49, mean of triplicate): 5.1 log cfu/g | aerobic total count ([2]; Example 14, cooked chicken, LAE 0.2 g/kg, day 49, samples 1-3, monohydrochloride): 5.3 log cfu/g and 4.9 log cfu/g and 5.0 log cfu/g | aerobic total count, mean ([2]; Example 14, cooked chicken, LAE 0.2 g/kg, day 56 (8 weeks), mean of triplicate): 5.6 log cfu/g | aerobic total count ([2]; Example 14, cooked chicken, LAE 0.2 g/kg, day 56, samples 1-3, monohydrochloride): 5.2 log cfu/g | counts (aerobic total count) ([2]; Example 14, cooked chicken, LAE 0.2 g/kg): below 4.0 log cfu/g | aerobic total count, mean ([2]; Example 16, cooked chicken, 0.20 g of LAE/kg, day 0, mean of triplicate): 2.0 log cfu/g | aerobic total count, mean ([2]; Example 16, cooked chicken, 0.20 g of LAE/kg, day 7, mean of triplicate): 2.0 log cfu/g | aerobic total count, mean ([2]; Example 16, cooked chicken, 0.20 g of LAE/kg, day 14, mean of triplicate): 2.2 log cfu/g | aerobic total count, mean ([2]; Example 16, cooked chicken, 0.20 g of LAE/kg, day 21, mean of triplicate): 2.8 log cfu/g | aerobic total count, mean ([2]; Example 16, cooked chicken, 0.20 g of LAE/kg, day 28, mean of triplicate): 3.2 log cfu/g | aerobic total count, mean ([2]; Example 16, cooked chicken, 0.20 g of LAE/kg, day 35, mean of triplicate): 3.6 log cfu/g | aerobic total count, mean ([2]; Example 16, cooked chicken, 0.20 g of LAE/kg, day 42, mean of triplicate): 4.3 log cfu/g | aerobic total count, mean ([2]; Example 16, cooked chicken, 0.20 g of LAE/kg, day 49, mean of triplicate): 4.9 log cfu/g | aerobic total count, mean ([2]; Example 16, cooked chicken, 0.20 g of LAE/kg, day 56 (8 weeks), mean of triplicate): 5.5 log cfu/g | counts (aerobic total count) ([2]; Example 16, cooked chicken, LAE 0.2 g/kg): below 4.0 log cfu/g | aerobic total count, mean ([2]; Example 18, cooked chicken, 0.2 g of LAE/kg, day 0, mean of triplicate): 2.0 log cfu/g | aerobic total count, mean ([2]; Example 18, cooked chicken, 0.2 g of LAE/kg, day 7, mean of triplicate): 2.0 log cfu/g | aerobic total count, mean ([2]; Example 18, cooked chicken, 0.2 g of LAE/kg, day 14, mean of triplicate): 2.4 log cfu/g | aerobic total count, mean ([2]; Example 18, cooked chicken, 0.2 g of LAE/kg, day 21, mean of triplicate): 2.9 log cfu/g | aerobic total count, mean ([2]; Example 18, cooked chicken, 0.2 g of LAE/kg, day 28, mean of triplicate): 3.4 log cfu/g | aerobic total count, mean ([2]; Example 18, cooked chicken, 0.2 g of LAE/kg, day 35, mean of triplicate): 3.7 log cfu/g | aerobic total count, mean ([2]; Example 18, cooked chicken, 0.2 g of LAE/kg, day 42, mean of triplicate): 4.1 log cfu/g | aerobic total count, mean ([2]; Example 18, cooked chicken, 0.2 g of LAE/kg, day 49, mean of triplicate): 5.2 log cfu/g | aerobic total count, mean ([2]; Example 18, cooked chicken, 0.2 g of LAE/kg, day 56 (8 weeks), mean of triplicate): 5.7 log cfu/g | counts (aerobic total count) ([2]; Example 18, cooked chicken, LAE 0.2 g/kg): below 4.0 log cfu/g | aerobic total count, mean ([3]; 0 hours): 2.0 log cfu/g | aerobic total count, mean ([3]; 4 hours): 2.0 log cfu/g | aerobic total count, mean ([3]; 8 hours): 2.5 log cfu/g | aerobic total count, mean ([3]; 16 hours): 3.8 log cfu/g
